Starred links: 1 amine or outer side, 2 acyl side, 3 side chain; linkers in the order of their positions; H or OH if unused. Non-standard residues stand in square brackets, D forms with d. Residues, ends and D or L forms follow the SMILES beside them. *: point of attachment. X1 = O=C(CCCC[C@@H]1SC[C@@H]2NC(=O)N[C@@H]21)NCCCOCCOCCOCCCN*; pT = C[C@@H](OP(=O)(O)O)[C@H](N)C(=O)O; Suc = O=C(CCC(=O)[*:2])[*:1]
Columns and labels:
Format in all cases: binding
[1] = target: T1, 14-3-3ε (Homo sapiens, UniProt P62258); assay: biochemical
T1 construct: Plasmids containing the cDNAs of the full-length 14-3-3 isoforms ε, γ, and ζ were received; made in house; host or cells: E. coli BL21(DE3)
T1 sequence (P62258 1-255): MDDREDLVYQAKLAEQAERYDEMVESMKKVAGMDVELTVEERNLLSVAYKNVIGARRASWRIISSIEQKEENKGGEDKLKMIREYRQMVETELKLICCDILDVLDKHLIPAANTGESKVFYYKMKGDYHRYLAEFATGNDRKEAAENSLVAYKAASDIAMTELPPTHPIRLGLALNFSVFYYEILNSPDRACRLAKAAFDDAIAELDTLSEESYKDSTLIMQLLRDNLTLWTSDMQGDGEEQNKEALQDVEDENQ
Description: (§1) The seven full-length human 14-3-3 isoforms, produced as fusions to a maltose-binding protein (MBP), were analyzed for their interaction with four phospho-PBMs from E6 proteins of HPV types 16, 18, 33, and 35 belonging to subgroups 1 and 2 (as defined in Supplementary Fig. 1). For comparison, we also measured two non-viral phospho-PBMs originating from protein kinase RSK1[28]. We used a competitive fluorescence polarization (FP) assay that measures the displacement of a fluorescent tracer phosphopeptide (here, derived from the HSPB6 protein) bound beforehand to 14-3-3, by an increasing amount of the peptide of interest.
(§2) For affinity measurements, full-length human 14-3-3 constructs with an N-terminal MBP fusion were used. Plasmids containing the cDNAs of the full-length 14-3-3 isoforms ε, γ, and ζ were received from Prof. Lawrence Banks. cDNAs encoding other full-length 14-3-3 isoforms β, τ, η, and σ were obtained as codon-optimized for E. coli expression synthetic genes from IDT Technologies (Coralville, Iowa, USA). All 14-3-3 isoforms were fused via a three-alanine linker to the C terminus of a mutant MBP carrying the following amino acid substitutions facilitating crystallization: D83A, K84A, K240A, E360A, K363A, and D364A[62]. All resulting clones were verified by sequencing. The MBP-fused proteins were expressed in E. coli BL21(DE3) with IPTG induction. Proteins were affinity purified on an amylose column and were further purified by ion-exchange chromatography (HiTrap Q HP, GE Healthcare). Unfused 14-3-3 isoforms devoid of the flexible C-terminal tails (14-3-3βΔC, 14-3-3τΔC 14-3-3εΔC) were expressed using IPTG induction and purified by subtractive IMAC and SEC[40]. Protein concentrations were determined by UV spectroscopy. The samples were supplemented with glycerol and TCEP before aliquoting and freezing in liquid nitrogen.
(§3) Unless otherwise stated, all phosphopeptide-binding measurements were performed using full-length 14-3-3 proteins fused to the C terminus of MBP, favoring optimal solubility and a standardized parallel purification scheme.
(§4) FP was measured with a PHERAstar (BMG Labtech, Offenburg, Germany) microplate reader by using 485 ± 20 and 528 ± 20 nm band-pass filters (for excitation and emission, respectively). In direct FP measurements, a dilution series of the 14-3-3 protein was prepared in 96-well plates (96-well skirted PCR plate, 4ti-0740, 4titude, Wotton, UK) in a 20 mM HEPES pH 7.5 buffer containing 150 mM NaCl, 0.5 mM TCEP, 0.01% Tween 20, 50 nM fluorescently labeled fpB6 peptide, and 100 μM FSC, if indicated. The volume of the dilution series was 40 μl, which was later divided into three technical replicates of 10 μl upon transferring to 384-well micro-plates (low binding microplate, 384 well, E18063G5, Greiner Bio-One, Kremsmünster, Austria). In total, polarization of the probe was measured at eight different protein concentrations (whereas one contained no protein and corresponded to the free peptide). In competitive FP measurements, the same buffer was supplemented with the protein to achieve a complex formation of 60–80%, based on the direct titration. Then, this mixture was used for creating a dilution series of the unlabeled competitor (i.e., the studied peptides) and the measurement was carried out identically as in the direct experiment.
(§5) All FP experiments were done in triplicates. Analysis of FP experiments were carried out using ProFit, an in-house developed, Python-based fitting program. ProFit utilizes a Monte Carlo approach to take into account experimental variability. It generates hundreds of simulated datasets, based on the experimental data variance and fits direct and competitive measurements in pairs.

[2] = target: seven human 14-3-3 isoforms; assay: Affinities averaged or compared across the 14-3-3 family (ΔΔGav, KD ratios, affinity maps); details: for KD ratios, compared to LRRK2 pS910/pS935, 14-3-3β / KD ratios, compared to LRRK2 pS910/pS935, 14-3-3γ / KD ratios, compared to LRRK2 pS910/pS935, 14-3-3ζ / KD ratios, compared to LRRK2 pS910/pS935, 14-3-3η / KD ratios, compared to LRRK2 pS910/pS935, 14-3-3τ / KD ratios, compared to LRRK2 pS910/pS935, average / KD ratios, compared to LRRK2 pS910/pS935, 14-3-3ε / KD ratios, compared to LRRK2 pS910/pS935, 14-3-3σ: Figure 4 panel b; for KD ratios, compared to LRRK2 pS910/pS935, average: average over the isoforms; for KD ratios, compared to 14-3-3γ, 14-3-3β / KD ratios, compared to 14-3-3γ, 14-3-3γ / KD ratios, compared to 14-3-3γ, 14-3-3ζ / KD ratios, compared to 14-3-3γ, 14-3-3η / KD ratios, compared to 14-3-3γ, 14-3-3τ / KD ratios, compared to 14-3-3γ, 14-3-3ε / KD ratios, compared to 14-3-3γ, 14-3-3σ: Figure 4 panel c; for binding to 14-3-3 proteins: competitive FP, seven MBP-fused full-length 14-3-3 isoforms, result in words; for ΔΔGav (average 14-3-3 binding free energy difference) relative to p35E6: averaged over 14-3-3 isoforms, 295 K; for KD ratio relative to p35E6: corresponds to ΔΔGav averaged over 14-3-3 isoforms
From the text: Former studies have measured the binding of the seven human 14-3-3 isoforms to unrelated phospho-motifs derived from Cystic Fibrosis Transmembrane Conductance Regulator (CFTR), Leucine-Rich Repeat Kinase 2 (LRRK2), Potassium channel subfamily K members (TASK1/3), C-Raf, the p65 subunit of the NF-κB transcription factor, and from Ubiquitin carboxyl-terminal hydrolase 8 (USP8), representing a wide variety of different 14-3-3-binding motifs, including C-terminal, internal, monovalent, or divalent motifs[40],[44]–[48].
(gray background). The color scale is either based on affinity values or on KD ratios. √ denotes affinities weaker than the limit of quantitation of the experimental assays. b Same map as in a, normalized to the strongest 14-3-3-binding motif. […] Source data are provided as a Source Data file.
All binding data and the obtained fits are provided as Supplementary Data File 1.

[3] = target: T2, 14-3-3η (Homo sapiens, UniProt Q04917); assay: biochemical
T2 construct: cDNAs encoding other full-length 14-3-3 isoforms β, τ, η, and σ were obtained as codon-optimized; made in house; host or cells: E. coli BL21(DE3)
T2 sequence (Q04917 1-246): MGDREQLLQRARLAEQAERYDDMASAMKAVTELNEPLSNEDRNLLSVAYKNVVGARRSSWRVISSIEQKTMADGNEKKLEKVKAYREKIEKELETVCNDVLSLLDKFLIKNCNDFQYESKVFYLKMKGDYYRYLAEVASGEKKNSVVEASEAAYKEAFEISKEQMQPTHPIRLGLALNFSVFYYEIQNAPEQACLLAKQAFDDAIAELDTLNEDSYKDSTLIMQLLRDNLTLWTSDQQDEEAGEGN
Description: as §1, §2, §3, §4, §5

| SMILES | Kd [1] [µM] | KD ratios, compared to LRRK2 pS910/pS935, 14-3-3β [2] | KD ratios, compared to LRRK2 pS910/pS935, 14-3-3γ [2] | KD ratios, compared to LRRK2 pS910/pS935, 14-3-3ζ [2] | KD ratios, compared to LRRK2 pS910/pS935, 14-3-3η [2] | KD ratios, compared to LRRK2 pS910/pS935, 14-3-3τ [2] | KD ratios, compared to LRRK2 pS910/pS935, average [2] | KD ratios, compared to 14-3-3γ, 14-3-3β [2] | KD ratios, compared to 14-3-3γ, 14-3-3γ [2] | KD ratios, compared to 14-3-3γ, 14-3-3ζ [2] | KD ratios, compared to 14-3-3γ, 14-3-3η [2] | KD ratios, compared to 14-3-3γ, 14-3-3τ [2] | binding to 14-3-3 proteins [2] | KD ratios, compared to LRRK2 pS910/pS935, 14-3-3ε [2] | KD ratios, compared to LRRK2 pS910/pS935, 14-3-3σ [2] | KD ratios, compared to 14-3-3γ, 14-3-3ε [2] | KD ratios, compared to 14-3-3γ, 14-3-3σ [2] | Kd [3] [µM] | ΔΔGav (average 14-3-3 binding free energy difference) relative to p35E6 [2] | KD ratio relative to p35E6 [2] [fold] | other results |
| --- | --- | --- | --- | --- | --- | --- | --- | --- | --- | --- | --- | --- | --- | --- | --- | --- | --- | --- | --- | --- | --- |
| CC(C)C[C@H](NC(=O)[C@H](CCC(N)=O)NC(=O)[C@@H](NC(=O)[C@H](CCC(=O)O)NC(=O)[C@H](CCCNC(=N)N)NC(=O)[C@H](CCCNC(=N)N)NC(=O)[C@@H](NC(=O)[C@H](CCCNC(=N)N)NC(=O)[C@H](CO)NC(=O)[C@H](CO)NC(=O)CCC(=O)NCCCOCCOCCOCCCNC(=O)CCCC[C@@H]1SC[C@@H]2NC(=O)N[C@@H]21)[C@@H](C)O)[C@@H](C)OP(=O)(O)O)C(=O)O [pHPV16E6] | > 300 | 7536 | 11625 | 15333 | 16771 | 15158 | 13000 | 4.27 | 1.00 | 1.98 | 2.16 | 3.87 | detectably bound | – | – | – | – | – | – | – | Binding affinities (KD) of various 14-3-3-binding motifs, 14-3-3ε ([1]; Figure 4 panel a, unit from the colour scale line, motifs measured in this work): √ |
| CC(C)C[C@H](NC(=O)[C@H](CCCNC(=N)N)NC(=O)CCC(=O)NCCCOCCOCCOCCCNC(=O)CCCC[C@@H]1SC[C@@H]2NC(=O)N[C@@H]21)C(=O)N[C@@H](CCC(N)=O)C(=O)N[C@@H](CCCNC(=N)N)C(=O)N[C@@H](CCCNC(=N)N)C(=O)N[C@@H](CCCNC(=N)N)C(=O)N[C@@H](CCC(=O)O)C(=O)N[C@H](C(=O)N[C@@H](CCC(N)=O)C(=O)N[C@H](C(=O)O)C(C)C)[C@@H](C)OP(=O)(O)O [pHPV18E6] | – | 2000.00 | 3437.50 | 4666.67 | 4916.67 | 3978.95 | 4200.00 | 3.84 | 1.00 | 2.04 | 2.15 | 3.44 | detectably bound | 8145.16 | 2293.73 | 9.18 | 12.64 | – | – | – | – |
| CC(C)C[C@H](NC(=O)[C@H](C)NC(=O)[C@@H](NC(=O)[C@H](CCC(=O)O)NC(=O)[C@H](CCCNC(=N)N)NC(=O)[C@H](CCCNC(=N)N)NC(=O)[C@H](CCCNC(=N)N)NC(=O)[C@H](CO)NC(=O)[C@H](CCCNC(=N)N)NC(=O)[C@H](CO)NC(=O)CCC(=O)NCCCOCCOCCOCCCNC(=O)CCCC[C@@H]1SC[C@@H]2NC(=O)N[C@@H]21)[C@@H](C)OP(=O)(O)O)C(=O)O [pHPV33E6] ({X1-Suc}-SRSRRRE[pT]AL-OH) | 10.3 | 191.94 | 293.75 | 566.67 | 412.50 | 370.53 | 400.00 | 4.31 | 1.00 | 2.89 | 2.11 | 3.74 | detectably bound | 830.65 | 111.72 | 10.96 | 7.20 | 1.98 | –10.9 ± 0.7 kJ/mol | ~100 | – |
| CC(C)[C@H](NC(=O)[C@H](CCC(=O)O)NC(=O)[C@@H](NC(=O)[C@H](CCC(=O)O)NC(=O)[C@H](CCCNC(=N)N)NC(=O)[C@H](CCCNC(=N)N)NC(=O)[C@H](CCCNC(=N)N)NC(=O)[C@@H]1CCCN1C(=O)[C@H](CCCCN)NC(=O)[C@H](CO)NC(=O)CCC(=O)NCCCOCCOCCOCCCNC(=O)CCCC[C@@H]1SC[C@@H]2NC(=O)N[C@@H]21)[C@@H](C)OP(=O)(O)O)C(=O)O [pHPV35E6T-6R] ({X1-Suc}-SKPRRRE[pT]EV-OH) | – | 8483 | 22250 | 28958 | 17708 | 20421 | 20000 | 2.51 | 1.00 | 1.95 | 1.19 | 2.72 | – | – | – | – | – | 85 ± 20.6 | –1.1 ± 0.5 kJ/mol | 1.5 | – |
